From the supplement of paper PMC10307832

Assays:
Test in all cases: relative viability (nuclei count vs DMSO), 5 days (fraction); higher = more cells survive
AZ505 + Decitabine = compound: C1CCC(CC1)N(CCNCCC2=C3C(=C(C=C2)O)NC(=O)CO3)C(=O)CCNCCC4=CC(=C(C=C4)Cl)Cl [AZ505] + Nc1ncn([C@H]2C[C@H](O)[C@@H](CO)O2)c(=O)n1 [Decitabine] (partner 2 µM)
How it was run: (§1)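 Each reported value is a median over duplicate plates. It expresses relative viability: treated-well nuclei count divided by vehicle-well nuclei count. Lung cancer cell lines in 1536-well plates were dosed by pin tool a day after seeding, alone with one drug or with a fixed anchor-drug dose plus five library-drug doses (not always all listed) in √10 steps, and nuclei were counted after 5 days.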

AZ505 + Bortezomib = compound: C1CCC(CC1)N(CCNCCC2=C3C(=C(C=C2)O)NC(=O)CO3)C(=O)CCNCCC4=CC(=C(C=C4)Cl)Cl [AZ505] + CC(C)C[C@H](NC(=O)[C@H](Cc1ccccc1)NC(=O)c1cnccn1)B(O)O [Bortezomib] (partner 0.002 µM)
How it was run: as §1

Dactolisib + Luminespib = compound: Cn1c(=O)n(-c2ccc(C(C)(C)C#N)cc2)c2c3cc(-c4cnc5ccccc5c4)ccc3ncc21 [Dactolisib] + CCNC(=O)c1noc(-c2cc(C(C)C)c(O)cc2O)c1-c1ccc(CN2CCOCC2)cc1 [Luminespib] (partner 0.01 µM)
How it was run: as §1

Dactolisib + Dasatinib = compound: Cn1c(=O)n(-c2ccc(C(C)(C)C#N)cc2)c2c3cc(-c4cnc5ccccc5c4)ccc3ncc21 [Dactolisib] + Cc1nc(Nc2ncc(C(=O)Nc3c(C)cccc3Cl)s2)cc(N2CCN(CCO)CC2)n1 [Dasatinib] (partner 0.075 µM)
How it was run: as §1

Cell Line	relative viability (AZ505 + Decitabine; first compound 0.08 µM)	relative viability (AZ505 + Decitabine; first compound 0.253 µM)	relative viability (AZ505 + Decitabine; first compound 0.8 µM)	relative viability (AZ505 + Decitabine; first compound 2.53 µM)	relative viability (AZ505 + Decitabine; first compound 8 µM)	relative viability (AZ505 + Bortezomib; first compound 0.08 µM)	relative viability (AZ505 + Bortezomib; first compound 0.253 µM)	relative viability (AZ505 + Bortezomib; first compound 0.8 µM)	relative viability (AZ505 + Bortezomib; first compound 2.53 µM)	relative viability (AZ505 + Bortezomib; first compound 8 µM)	relative viability (Dactolisib + Luminespib; first compound 0.002 µM)	relative viability (Dactolisib + Luminespib; first compound 0.006325 µM)	relative viability (Dactolisib + Luminespib; first compound 0.02 µM)	relative viability (Dactolisib + Luminespib; first compound 0.06325 µM)	relative viability (Dactolisib + Luminespib; first compound 0.2 µM)	relative viability (Dactolisib + Dasatinib; first compound 0.002 µM)	relative viability (Dactolisib + Dasatinib; first compound 0.006325 µM)	relative viability (Dactolisib + Dasatinib; first compound 0.02 µM)	relative viability (Dactolisib + Dasatinib; first compound 0.06325 µM)	relative viability (Dactolisib + Dasatinib; first compound 0.2 µM)
201T	0.857	0.863	0.812	0.877	0.824	1.09	1.11	1.06	1.11	1.07	1.15	0.992	0.952	0.89	0.469	0.601	0.538	0.524	0.554	0.346
A549		0.264	0.295	0.22	0.284															
A-427	0.58	0.551	0.488	0.525	0.574	0.928	0.978	1.03	0.917	0.997	0.737	0.834	0.861	0.572	0.47	0.841	0.645	0.668	0.436	0.352
ABC-1	1.07		1.11	0.938	1.04	0.31	0.281	0.303	0.313	0.256	0.496	0.59		0.257	0.366	0.57	0.486	0.416	0.392	0.282
BEN	0.714	0.655	0.752	0.768	0.78	0.744	0.806	0.809	0.861	0.842	0.382	0.234	0.366	0.25	0.268	0.333	0.288	0.307	0.329	0.262
CAL-12T						0.946	0.82	0.835	0.936	1.01	0.477	0.128	0.117	0.142	0.12	0.456	0.35	0.252	0.172	0.108
COR-L23	0.378	0.449	0.381	0.458	0.443	0.996	1.1	0.888	0.925	0.832	0.678	0.49	0.284	0.123	0.138	0.634	0.471	0.543	0.169	0.144
COR-L 105	0.375	0.653	0.591	0.637	0.729	0.712	0.907	0.813	0.65	0.77	0.776	0.889	0.55	0.334	0.254	0.294	0.293	0.309	0.2	0.202
Calu-6						0.969	1.07	0.906	0.915	1.12										
ChaGo-K-1	0.51	0.529	0.478	0.541	0.517	0.945	0.91	1.04	1	1.13	0.622	0.562	0.582	0.39	0.463	0.584	0.56	0.597	0.523	0.556
EBC-1						0.479	0.519	0.452	0.533	0.515										
EKVX		0.35	0.318	0.349	0.349	0.992	0.906	0.986	1.09	0.992	0.808	0.743	0.736	0.453	0.247	0.523	0.578	0.382	0.269	0.204
EMC-BAC-2	0.938		0.862	0.924	0.943	0.988	1.03	0.972	1.01	1.1	1.15	1.14	1.1	0.875	0.556	0.337	0.325	0.342	0.209	0.18
EPLC-272H	0.35	0.352	0.305	0.343	0.354	0.769	1.04	0.85	0.721	0.904	0.691	0.262	0.264	0.203	0.23	0.359	0.254	0.318	0.207	0.233
H3255		0.607	0.583	0.6	0.925	0.558	0.812	0.817	0.804	0.758	0.843	0.875	0.912	0.796	0.511	0.489	0.387	0.357	0.397	0.28
HARA	0.302		0.41	0.482	0.408	1.04	1.01	0.914	1.03	0.916	0.829	0.462	0.62	0.314	0.121	0.273	0.25	0.213	0.292	0.127
HCC-15	0.566	0.627	0.587	0.705	0.678	0.973	1.08	1.01	0.989	1.02	0.38	0.303	0.507	0.173	0.142	0.609	0.559	0.499	0.319	0.229
HCC-44	0.902	1.03	0.869	1.01	0.945	0.865	0.883	0.879	0.915	0.86	0.914	1.04	0.943	0.379	0.644					
HCC-78			0.738	0.705	0.801	0.619	0.72	0.557	0.546	0.587						0.427	0.409	0.336	0.399	0.224
